We go through 16 compounds from US12077537B2 (Gilead Sciences, Inc., priority 2020, dated 2024).

For the assay, the system named is HIV-IIIb. The assay can be described thus: Antiviral assay in MT4 cells. It is filed as cell-based. To be noted: Human immunodeficiency virus 1, MT4, 120 h; MT-4 cells mixed with HIV-IIIb at m.o.i. 0.003; 5 days at 37° C.; CellTiter-Glo luminescence; 50% decrease in signal, a measure of HIV-1 replication. The method in brief: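 MT-4 cells were infected with HIV-IIIb at m.o.i. 0.003 for 1 hour, then added to 3-fold serially diluted compound (10 concentrations, quadruplicate) in medium with 10% FBS. After 5 days at 37° C, cell viability was read by CellTiter-Glo chemiluminescence.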
`O=C(Cn1nc(C(F)(F)F)c2c1C(F)(F)[C@@H]1C[C@H]21)N[C@@H](Cc1cc(F)cc(F)c1)c1nc2nc(-c3ccc4c(c3)C(=O)NC4)sc2cc1-c1ccc2c(c1)C(=O)NC2` [Compound 143, N—((S)-1-(2,6-bis(3-oxoisoindolin-5-yl)thiazolo[4,5-b]pyridin-5-yl)-2-(3,5-difluorophenyl)ethyl)-2-((3bS,4aR)-5,5-difluoro-3-(trifluoromethyl)-3b,4,4a,5-tetrahydro-1H-cyclopropa[3,4]cyclopenta[1,2-c]pyrazol-1-yl)acetamide] showed an EC50 of 15.5 nM. That is a double-digit nanomolar value.

In the case of `Cn1nc(NS(C)(=O)=O)c2cccc(-c3cc4[nH]c(C5CC5)nc4nc3[C@H](Cc3cc(F)cc(F)c3)NC(=O)Cn3nc(C(F)F)c4c3C(F)(F)[C@@H]3C[C@H]43)c21` [Example 93, N—((S)-1-(2-cyclopropyl-6-(1-methyl-3-(methylsulfonamido)-1H-indazol-7-yl)-1H-imidazo[4,5-b]pyridin-5-yl)-2-(3,5-difluorophenyl)ethyl)-2-((3bS,4aR)-3-(difluoromethyl)-5,5-difluoro-3b,4,4a,5-tetrahydro-1H-cyclopropa[3,4]cyclopenta[1,2-c]pyrazol-1-yl)acetamide], a half-maximal effect (EC50) was put at 11.1 nM.

As for `NC(=O)c1cc(-c2cc3sc(NCCN4CCOCC4)nc3nc2[C@H](Cc2cc(F)cc(F)c2)NC(=O)Cn2nc(C(F)F)c3c2C(F)(F)CCC3(F)F)ccc1F` [Compound 8, (S)-5-(5-(1-(2-(3-(difluoromethyl)-4,4,7,7-tetrafluoro-4,5,6,7-tetrahydro-1H-indazol-1-yl)acetamido)-2-(3,5-difluorophenyl)ethyl)-2-((2-morpholinoethyl)amino)thiazolo[4,5-b]pyridin-6-yl)-2-fluorobenzamide], the EC50 turned out to be 162 nM. Compared with the last compound, the EC50 is about 15-fold higher.

`CC1CC1Nc1nc2nc([C@H](Cc3cc(F)cc(F)c3)NC(=O)Cn3nc(C(F)(F)F)c4c3C(F)(F)[C@@H]3C[C@H]43)c(-c3cccc4c(NS(C)(=O)=O)nn(C)c34)cc2s1` (stereo partly drawn) [Example 78, 2-((3bS,4aR)-5,5-difluoro-3-(trifluoromethyl)-3b,4,4a,5-tetrahydro-1H-cyclopropa[3,4]cyclopenta[1,2-c]pyrazol-1-yl)-N-((1S)-2-(3,5-difluorophenyl)-1-(6-(1-methyl-3-(methylsulfonamido)-1H-indazol-7-yl)-2-((2-methylcyclopropyl)amino)thiazolo[4,5-b]pyridin-5-yl)ethyl)acetamide] registered an EC50 of 42.7 nM.

Take `O=C(Cn1nc(C(F)(F)F)c2c1C(F)(F)[C@@H]1C[C@H]21)N[C@@H](Cc1cc(F)cc(F)c1)c1nc2nc(N3CCN(c4nc5ccccc5[nH]4)CC3)sc2cc1-c1ccc2c(c1)C(=O)NC21CC1` [Compound 44, N—((S)-1-(2-(4-(1H-benzo[d]imidazol-2-yl)piperazin-1-yl)-6-(3′ oxospiro[cyclopropane-1,1′-isoindolin]-5′-yl)thiazolo[4,5-b]pyridin-5-yl)-2-(3,5-difluorophenyl)ethyl)-2-((3bS,4aR)-5,5-difluoro-3-(trifluoromethyl)-3b,4,4a,5-tetrahydro-1H-cyclopropa[3,4]cyclopenta[1,2-c]pyrazol-1-yl)acetamide]: the EC50 was determined as 89.1 nM.

`N#Cc1cc(-c2cc3sc(N4CCOCC4)nc3nc2[C@H](Cc2cc(F)cc(F)c2)NC(=O)Cn2nc(C(F)F)c3c2C(F)(F)CCC3(F)F)ccc1F` [Example 3K, (S)—N-(1-(6-(3-cyano-4-fluorophenyl)-2-morpholinothiazolo[4,5-b]pyridin-5-yl)-2-(3,5-difluorophenyl)ethyl)-2-(3-(difluoromethyl)-4,4,7,7-tetrafluoro-4,5,6,7-tetrahydro-1H-indazol-1-yl)acetamide] came in with an EC50 of 1800 nM.

On to `O=C(Cn1nc(C(F)F)c2c1C(F)(F)CCC2(F)F)N[C@@H](Cc1cc(F)cc(F)c1)c1nc2ncsc2cc1-c1ccc(F)cc1` [Compound 16, (S)-2-(3-(difluoromethyl)-4,4,7,7-tetrafluoro-4,5,6,7-tetrahydro-1H-indazol-1-yl)-N-(2-(3,5-difluorophenyl)-1-(6-(4-fluorophenyl)thiazolo[4,5-b]pyridin-5-yl)ethyl)acetamide], for which the EC50 worked out at 1020 nM.

With `Cn1nc(NS(C)(=O)=O)c2cccc(-c3cc4[nH]c(-c5ccccc5)nc4nc3[C@H](Cc3cc(F)cc(F)c3)NC(=O)Cn3nc(C(F)F)c4c3C(F)(F)[C@@H]3C[C@H]43)c21` [Example 95, 2-((3bS,4aR)-3-(difluoromethyl)-5,5-difluoro-3b,4,4a,5-tetrahydro-1H-cyclopropa[3,4]cyclopenta[1,2-c]pyrazol-1-yl)-N—((S)-2-(3,5-difluorophenyl)-1-(6-(1-methyl-3-(methylsulfonamido)-1H-indazol-7-yl)-2-phenyl-1H-imidazo[4,5-b]pyridin-5-yl)ethyl)acetamide], a half-maximal response (EC50) required 67.5 nM. Against the preceding compound, the EC50 is about 15-fold lower.

The compound `CC(C)c1nc2nc([C@H](Cc3cc(F)cc(F)c3)NC(=O)Cn3nc(C(F)F)c4c3C(F)(F)[C@@H]3C[C@H]43)c(-c3ccc(Cl)c4c(NS(C)(=O)=O)nn(C)c34)cc2[nH]1` [Example 104, N—((S)-1-(6-(4-chloro-1-methyl-3-(methylsulfonamido)-1H-indazol-7-yl)-2-isopropyl-TH-imidazo[4,5-b]pyridin-5-yl)-2-(3,5-difluorophenyl)ethyl)-2-((3bS,4aR)-3-(difluoromethyl)-5,5-difluoro-3b,4,4a,5-tetrahydro-TH-cyclopropa[3,4]cyclopenta[1,2-c]pyrazol-1-yl)acetamide] yielded a 50% effective concentration (EC50) of 4.4 nM.

For `Cn1nc(NS(C)(=O)=O)c2cccc(-c3cc4sc(N5CC(C)(O)C5)nc4nc3[C@H](Cc3cc(F)cc(F)c3)NC(=O)Cn3nc(C(F)(F)F)c4c3C(F)(F)[C@@H]3C[C@H]43)c21` [Compound 53, 2-((3bS,4aR)-5,5-difluoro-3-(trifluoromethyl)-3b,4,4a,5-tetrahydro-1H-cyclopropa[3,4]cyclopenta[1,2-c]pyrazol-1-yl)-N—((S)-2-(3,5-difluorophenyl)-1-(2-(3-hydroxy-3-methylazetidin-1-yl)-6-(1-methyl-3-(methylsulfonamido)-1H-indazol-7-yl)thiazolo[4,5-b]pyridin-5-yl)ethyl)acetamide], the half-maximal effective concentration (EC50) turned out to be 20.4 nM.

`O=C(Cn1nc(C(F)(F)F)c2c1C(F)(F)[C@@H]1C[C@H]21)N[C@@H](Cc1cc(F)cc(F)c1)c1nc2nc(N3CCN(c4ccncc4)CC3)sc2cc1-c1cccc2c1CNC2=O` [Compound 40, 2-((3bS,4aR)-5,5-difluoro-3-(trifluoromethyl)-3b,4,4a,5-tetrahydro-1H-cyclopropa[3,4]cyclopenta[1,2-c]pyrazol-1-yl)-N—((S)-2-(3,5-difluorophenyl)-1-(6-(1-oxoisoindolin-4-yl)-2-(4-(pyridin-4-yl)piperazin-1-yl)thiazolo[4,5-b]pyridin-5-yl)ethyl)acetamide] yielded an EC50 of 28.1 nM.

In turn, `Cn1nc(NS(C)(=O)=O)c2cccc(-c3cc4sc(NC5(C)CC5)nc4nc3[C@H](Cc3cc(F)cc(F)c3)NC(=O)Cn3nc(C(F)(F)F)c4c3C(F)(F)[C@@H]3C[C@H]43)c21` [Example 81, 2-((3bS,4aR)-5,5-difluoro-3-(trifluoromethyl)-3b,4,4a,5-tetrahydro-1H-cyclopropa[3,4]cyclopenta[1,2-c]pyrazol-1-yl)-N—((S)-2-(3,5-difluorophenyl)-1-(6-(1-methyl-3-(methylsulfonamido)-1H-indazol-7-yl)-2-((1-methylcyclopropyl)amino)thiazolo[4,5-b]pyridin-5-yl)ethyl)acetamide] returned an EC50 of 18.6 nM.

`Cn1nc(NS(C)(=O)=O)c2cccc(-c3cc4sc(N5CC6(COC6)C5)nc4nc3[C@H](Cc3cc(F)cc(F)c3)NC(=O)Cn3nc(C(F)(F)F)c4c3C(F)(F)[C@@H]3C[C@H]43)c21` [Example 77, 2-((3bS,4aR)-5,5-difluoro-3-(trifluoromethyl)-3b,4,4a,5-tetrahydro-1H-cyclopropa[3,4]cyclopenta[1,2-c]pyrazol-1-yl)-N—((S)-2-(3,5-difluorophenyl)-1-(6-(1-methyl-3-(methylsulfonamido)-1H-indazol-7-yl)-2-(2-oxa-6-azaspiro[3.3]heptan-6-yl)thiazolo[4,5-b]pyridin-5-yl)ethyl)acetamide] showed an EC50 of 15.8 nM.

In the case of `CN(C)CCNc1nc2nc(C(Cc3cc(F)cc(F)c3)NC(=O)Cn3nc(C(F)F)c4c3C(F)(F)CCC4(F)F)c(-c3ccc(F)c(C#N)c3)cc2s1` (stereo not shown) [Compound 21, N-(1-(6-(3-cyano-4-fluorophenyl)-2-((2-(dimethylamino)ethyl)amino)thiazolo[4,5-b]pyridin-5-yl)-2-(3,5-difluorophenyl)ethyl)-2-(3-(difluoromethyl)-4,4,7,7-tetrafluoro-4,5,6,7-tetrahydro-1H-indazol-1-yl)acetamide], the EC50 is at least 53200 nM.

In turn, `CCS(=O)(=O)Nc1nn(C)c2c(-c3cc4sc(NCC(C)(C)O)nc4nc3[C@H](Cc3cc(F)cc(F)c3)NC(=O)Cn3nc(C(F)F)c4c3C(F)(F)[C@@H]3C[C@H]43)cccc12` [Compound 61, 2-((3bS,4aR)-3-(difluoromethyl)-5,5-difluoro-3b,4,4a,5-tetrahydro-1H-cyclopropa[3,4]cyclopenta[1,2-c]pyrazol-1-yl)-N—((S)-2-(3,5-difluorophenyl)-1-(6-(3-(ethylsulfonamido)-1-methyl-1H-indazol-7-yl)-2-((2-hydroxy-2-methylpropyl)amino)thiazolo[4,5-b]pyridin-5-yl)ethyl)acetamide] had a 50% effective concentration (EC50) of 10 nM.

Compound `CC(CN(C)C)Nc1nc2nc([C@H](Cc3cc(F)cc(F)c3)NC(=O)Cn3nc(C(F)(F)F)c4c3C(F)(F)[C@@H]3C[C@H]43)c(-c3cccc4c(NS(C)(=O)=O)nn(C)c34)cc2s1` (stereo partly drawn) [Example 67, 2-((3bS,4aR)-5,5-difluoro-3-(trifluoromethyl)-3b,4,4a,5-tetrahydro-1H-cyclopropa[3,4]cyclopenta[1,2-c]pyrazol-1-yl)-N-((1S)-2-(3,5-difluorophenyl)-1-(2-((1-(dimethylamino)propan-2-yl)amino)-6-(1-methyl-3-(methylsulfonamido)-1H-indazol-7-yl)thiazolo[4,5-b]pyridin-5-yl)ethyl)acetamide] came in with an EC50 of 27.3 nM.

One may read the EC50 as the concentration that produces a half-maximal response.
